What was measured:
[1] = Chemical stability (loss of diazeniumdiolate) in phosphate buffer; type: physicochemical
Description: They varied only in the nitrogen substituent of the amino acid, i.e. free amine (1), acetyl (2) and pivaloyl (3) groups. Their chemical stability was evaluated in phosphate buffer at different pH's over a 30 minute period (Table 11).

[2] = Enzymatic hydrolysis in liver microsomal preparations (LC-MS); type: in vitro ADME; settings: for Time to complete hydrolysis (cleavage of the diazeniumdiolate): liver microsomal preparations
Description: The sensitivity of the prodrug 3 towards enzymatic hydrolysis was evaluated by LC-MS. Liver and intestinal microsomal preparations were used. […] However, these rates were slower than the enzymatic hydrolysis rates determined for the conversion of 1→4 and 2→5 (complete hydrolysis observed in 10 and 30 minutes respectively in liver microsomal preparations).

[3] = tested on: male Wistar rats; assay: Urine alanine aminopeptidase to creatinine ratio (proximal tubular kidney damage); type: in vivo, rat; settings: for AAP/Cr (urine alanine aminopeptidase to creatinine), Mean: oral gavage, urine collected for 6 hours
Excerpt: (§1) Myocardial infarction and ischemic events in high risk patients led one of the most popular COX-2 inhibitors to its demise (Bresalier et al., 2005). Non-selective NSAIDS may also cause similar problems due to their ability to inhibit COX-2. […] Adenosine diphosphate (ADP) generation is an indicator of myocardial infarction which has no connection with the arachidonic acid cascade (Borna et al., 2005). […] Long term NSAID use has been linked to kidney damage and hypertension (Zafirovska et al., 1993). […] This was associated with an increase in the urine the ratio of alanine-amino-peptidase (AAP) and creatinine.
(§2) Table 1 is a summary of the protocol for a study which was conducted in male Wistar rats weighing 275-300 grams. The animals were allowed to acclimatize for at least five days prior to the commencement of the study. The study protocol was approved by the local animal ethics committee.
(§3) All test animals, housed in metabolic cages, had urine collected over wet ice for 6 hours after dosing. Aliquots of the urine from each animal were collected to determine creatinine concentration. The remainder of the urine was centrifuged at 1000 g for 10 minutes. The supernatant was collected and mixed with analytical grade ethylene glycol at a rate of 0.4 mL ethylene glycol per 1 mL urine supernatant. The ethylene glycol/urine mixture was stored at −80° C. until analysis.

[4] = tested on: male Wistar rats; assay: Urine N-acetylglucosaminidase to creatinine ratio (distal tubule toxicity); type: in vivo, rat; settings: oral gavage, urine collected for 6 hours
Description: as §2, §3

[5] = tested on: cardiac tissue prostacyclin (PGI2) to thromboxane A2 (TXB2) ratio; assay: Cardiac tissue prostacyclin to thromboxane ratio; type: in vivo, rat; settings: male Wistar rats; for PGI2/TXA2 ratio comparison (in words): cardiac tissue; for Cardiac Tissue PGI2/TXB2, Mean: oral gavage, heart removed 6 hours after dosing
Excerpt: as §1, §2
All rats were euthanized by removal of the heart 6 hours after initial dosing, following final blood collections. Immediately after terminal blood collections were complete, the thorax was opened and the heart removed. The heart was cut in half longitudinally. Half of the heart was placed in formalin for histological examination. The other half was quickly rinsed in saline and then freeze-clamped (crushed between the jaws of a pair of modified tongs, cooled by liquid nitrogen). An entire kidney was freeze-clamped. The other kidney was left in situ for examination by the pathologist. Freeze-clamped tissues were wrapped in labeled aluminum foil and stored in liquid nitrogen until they could be transferred to a −80° C. freezer. Freeze-clamped tissues were shipped on dry ice to NOVOKIN for analysis.

[6] = tested on: male Wistar rats; assay: Gastric ulcer index after oral dosing; type: in vivo, rat; settings: for Ulcer Indices, Mean: oral gavage, naproxen 250 mg/kg or molar equivalent (ROF 250 mg/kg), 6 h after dosing, mean aggregate gastric ulcer length; for Ulcerogenicity (in words): oral, 6 h
Description: as §2
(§4) The animals were fasted overnight prior to test substance administration. The test substance was administered orally by gavage on the morning of the study day. All test animals had blood collected during the test period in both EDTA (ethylenediaminetetraacetic acid) tubes and SST (Serum Separator Tubes) at 1, 3 and 6 hours after dosing. Blood was collected into EDTA tubes only at 1 and 3 hours by tail tip amputation. Volume of blood collected was between 0.5 and 1 mL at each of these collections. The final collection was by puncture of the abdominal vena cava under isoflurane general anesthesia. Final blood collection was targeted as follows: 1st EDTA #1—1.5 mL; 2nd SST—1.5 mL; 3rd EDTA #2—as much as possible.
Each animal from all groups underwent a full necropsy under the supervision of a board certified veterinary pathologist. The stomach of each rat was cut along the greater curvature, contents removed into a polypropylene (Falcon) tube, the mucosa rinsed with saline and any obvious ulcers or erosions were measured along the longest axis. This measurement was recorded for each ulcer or erosion observed in each stomach. The falcon tubes and their contents were frozen at −80° C. and shipped to Novokin on dry ice for analysis.
The aggregate length of all gastric ulcers found in a given animal was calculated. The mean aggregate ulcer length across animals in a group was calculated. This mean value was reported as the ulcer index for that group.
The ulcer index of each modified drug was compared with the ulcer index of its associated parent drug and the controls using analysis of variance and Duncan's multiple range test for pairwise comparisons. Statistical analysis was done using SAS® (SAS Institute Inc., Cary, N.C.).

[7] = Serum nitrate concentration (NO release) after oral dosing; type: in vivo, rat; settings: male Wistar rats, oral gavage, at 6 hours
Description: as §2, §4
EDTA samples were centrifuged, and the plasma portion was collected and frozen at −80° C. SST samples were incubated at 37° C. for approximately 45 minutes, centrifuged, and the serum was collected and frozen at −80° C. until analysis.

[8] = Hydrolysis in rat intestinal microsomes; type: in vitro ADME
Excerpt: (§5) The physiologically based pharmacokinetic/pharmacodynamic model of the present invention contains a series of compartments that describe the time course of a nonsteroidal anti-inflammatory prodrug, its active metabolites and nitric oxide release in intestine, liver, kidneys, blood/plasma and heart after prodrug administration. The time course of the prodrug, its active metabolites and nitric oxide release can be simulated using a series of in vitro and in silico inputs. The stability of each component in the gastrointestinal lumen is estimated using data collected from artificial gastric and intestinal juice. Intestinal metabolism is estimated using intestinal microsomes and absorption rate is estimated using permeability data collected from a cell monolayer such as Caco-2. Hepatic elimination is estimated using liver microsomes and stability in plasma is calculated using degradation of each component in the media. Plasma protein binding can either be measured using a standardized in vitro method or it can be estimated using an in silico method. The distribution of each component in various parts of the body is estimated using an in silico method. The rate of nitric oxide release is estimated using an in vitro endothelial cell model. The time course of prodrug, its active metabolites and nitric oxide can be simulated in human and animal using this physiologically based pharmacokinetic/pharmacodynamic model provided that the corresponding in vitro and in silico data are used as inputs.
(§6) Representative in vitro tests or in silico estimates include: (a) pKa estimation or measurement; (b) Log P measurement or in silico estimation; (c) Solubility in various physiological fluids; (d) Permeability. Caco-2 and/or NOVOKIN's proprietary animal and human cell lines can be used to obtain this parameter; (e) Metabolic rate in the intestine and liver. Human or animal intestinal microsomes, S9 fraction, and cytosol can be used for this purpose. Human or animal hepatocytes, liver microsomes, S9 fraction, and cytosol can also be used; (f) Hydrolysis in human or animal plasma; (g) Serum or plasma protein binding. It can be measured in vitro or estimated in silico; (h) The rate of NO release; (i) Existing pharmacokinetic and pharmacodynamic data of NSAID or a biocompatible agent; (j) Existing NO release rate of known diazeniumdiolate if applicable; (k) Stability in gastric and intestinal environment; and (l) In silico volume of distribution estimation.
(§7) Whenever in vitro estimate is attainable, the in vitro results will be used, for example, plasma protein binding. Methods reported by Bowalgaha & Miners (2001), Martignoni et al. (2006), Tong et al. (2001) and Thulesen et al. (1999) were used for in vitro and in vivo scale-up for clearance in the intestine, absorption rate constant and hepatic clearance. The simulation begins with no material in all compartments except for the initial bolus in one compartment (typically the stomach compartment). The simulation then estimates the changing distribution of the material with time.

[9] = Hydrolysis in rat plasma; type: in vitro ADME; settings: NO-AA formed from the prodrug
Excerpt: as §5, §6

[10] = Hydrolysis in human intestinal microsomes; type: in vitro ADME
Excerpt: as §5
The selection of in vitro tests is designed to provide parameters for the above mentioned model. The use of an inappropriate test would result in wrong predictions. For example, Knaus et al. (2005) used guinea pig serum and porcine esterases to hydrolyze their O^2-substituted diazeniumdiolate derivatives of ASPIRIN, as disclosed in U.S. Ser. No. 60/681,842. These tests provided very little information in terms of in vivo human NO-NSAID metabolism rate and the extent to which metabolic conversion to NO donor and NSAID occurred. […] The half-life values were less than one minute. Based on these observations, it has become apparent that prior to entering the systemic circulation, it is likely that the NO-NSAID would have been hydrolyzed in the enterocytes and little or no NO-NSAID would have been detected in the blood stream. Furthermore, the release of NO will commence immediately once the NO donor is detached from the NSAID.
as §6, §7

[11] = Stability in gastric environment (gastric decay rate); type: in vitro ADME
Excerpt: as §5, §6

[12] = Stability in intestinal lumen (decay rate); type: in vitro ADME
Excerpt: as §5, §6

[13] = Hydrolysis in various enzymatic preparations (rat and human intestinal and liver microsomes)
[14] = Hydrolysis in rat liver microsomes; type: in vitro ADME
Excerpt: as §5, §6, §7

[15] = Hydrolysis in human liver microsomes; type: in vitro ADME
Excerpt: as §5, with “The” for “The physiologically based pharmacokinetic/pharmacodynamic model of the present invention contains a series of compartments that describe the time course of a nonsteroidal anti-inflammatory prodrug, its active metabolites and nitric oxide release in intestine, liver, kidneys, blood/plasma and heart after prodrug administration. The”
The selection of in vitro tests is designed to provide parameters for the above mentioned model. The use of an inappropriate test would result in wrong predictions.
as §6
The simulation begins with no material in all compartments except for the initial bolus in one compartment (typically the stomach compartment). The simulation then estimates the changing distribution of the material with time.

Structure (SMILES): COc1ccc2cc(C(C)C(=O)OC3CNC(C(=O)OCON=[N+]([O-])N(C)C)C3)ccc2c1 (stereo not drawn) [Compound 1]
- Chemical stability (in words) ([1]; pH range 2.5-7.0, 30 minute period): underwent rapid degradation
- Time to complete hydrolysis (cleavage of the diazeniumdiolate) [2]: 10 min

Structure (SMILES): COc1ccc2cc(C(C)C(=O)OCON=[N+]([O-])N(C)C)ccc2c1 (stereo not drawn) [DMA-NO-NAP, dimethylamino-diazeniumdiolate-naproxen]
- AAP/Cr (urine alanine aminopeptidase to creatinine), Mean [3]: 132.412
- Urine NAG/Cr values, Mean [4]: 20.403
- PGI2/TXA2 ratio comparison (in words) [5]: achieving statistical significance (p<0.05)
- Cardiac Tissue PGI2/TXB2, Mean [5]: 5.157
- Ulcer Indices, Mean [6]: 1.695
- Ulcerogenicity (in words) [6]: somewhat less ulcerogenic
- Serum Nitrate Concentrations, Mean [7]: 768.000

Structure (SMILES): COc1ccc2cc(C(C)C(=O)OC3CC(C(=O)OCON=[N+]([O-])N(C)C)N(C(C)=O)C3)ccc2c1 (stereo not drawn) [Compound 2]
- Stability (loss of diazeniumdiolate), pH 2.5 ([1]; 30 min, pH 2.5): ✓
- Stability (loss of diazeniumdiolate), pH 5.0 ([1]; 30 min, pH 5.0): ✓
- Chemical stability (in words) ([1]; pH 2.5-5.0, 30 minute period): stable
- Chemical stability (in words) ([1]; pH 7.0, 30 minute period): much slower rate of decomposition
- Time to complete hydrolysis (cleavage of the diazeniumdiolate) [2]: 30 min

Structure (SMILES): COc1ccc2cc(C(C)C(=O)OCOC(=O)C(CCC(=O)OCON=[N+]([O-])N(C)C)NC(=O)C(C)(C)C)ccc2c1 (stereo not drawn) [CMD 114]
- intestinal molar percent conversion to Naproxen [8]: 42%
- intestinal microsomal activity ([8]; model input): 9 mL/min/organ
- Hydrolysis of the NO-AA in rat plasma (in words) [9]: relatively fast rate
- NO-AA half-life in plasma ([9]; Rat): 3.8 min
- intestinal molar percent conversion to Naproxen [10]: 78%
- intestinal microsomal activity ([10]; model input): 5006 mL/min/organ
- gastric decay rate constant ([11]; Human): 0 /mint
- gastric decay rate constant ([11]; Rat): 0 /mint
- intestinal lumen decay rate constant ([12]; Human): 0.67 min⁻¹
- intestinal lumen decay rate constant ([12]; Rat): 0.67 min⁻¹
- Stability of the NO-AA formed (in words) ([13]; intestinal and liver microsomes of human and rats): relatively stable
- Initial loss of the prodrug candidate (in words) ([13]; various enzymatic preparations): rapid initial loss
- liver molar percent conversion to Naproxen [14]: 60%
- liver microsomal activity ([14]; model input): 7667 mL/min/organ
- liver molar percent conversion to Naproxen [15]: 50%
- liver microsomal activity ([15]; model input): 721224 mL/min/organ

Structure (SMILES): CS(=O)(=O)c1ccc(C2=C(c3ccccc3)C(=O)OC2)cc1 [ROF, Rofecoxib]
- Urine AAP/creatinine ratio change (in words) [3]: did cause an increase
- AAP/Cr (urine alanine aminopeptidase to creatinine), Mean [3]: 538.367
- Urine NAG/Cr values, Mean [4]: 24.176
- PGI2/TXA2 ratio comparison (in words) [5]: lower ratios than vehicle
- Cardiac Tissue PGI2/TXB2, Mean [5]: 2.765
- Ulcer Indices, Mean [6]: 0.000
- Ulcerogenicity (in words) [6]: not significantly different from vehicle
- Serum Nitrate Concentrations, Mean [7]: 55.818

Structure (SMILES): COc1ccc2cc(C(C)C(=O)OCOC(=O)CCC(NC(C)=O)C(=O)OCOC(=O)C(C)c3ccc4cc(OC)ccc4c3)ccc2c1 (stereo not drawn) [Compound 9]
- Time to complete hydrolysis (initial cleavage of both esters) ([2]; liver microsomes): 30 min

From patent US20080288176A1 (priority 2005, published 2008)
